melting point [°C] | Structure (SMILES)
133 to 134 | COC(=O)COc1ccc([C@H]2c3ccc(O)cc3OC[C@H]2c2ccccc2)cc1 (racemic)
99 | CCOC(=O)c1c(Cc2ccccc2)nc2c(C(F)(F)F)cccc2c1O
134 to 138 | COc1ccc(C(O)C(CO)[N+](=O)[O-])cc1OC (centres undefined)
195 to 197 | CCOC(=O)c1[nH]c2cc(Cl)cc(Cl)c2c1NCCC(=O)c1ccccc1
45 to 47 | CCC(CC)(CCl)c1cc(Cl)nnc1Cl
243 to 244 | CC(C)(C)OC(=O)N1CCN(S(=O)(=O)c2ccc(N)c(Cl)c2)CC1
204 to 206 | Cc1cc(CN2CCC(N(C)S(=O)(=O)c3ccc(Nc4nccc(Nc5ccc(F)c(F)c5)n4)cc3)CC2)no1
219 to 220 | CC1CN(c2ncc(C(=O)N(c3cccc(C(F)(F)F)c3)C3CCCC3)c(N)n2)C(=O)N1 (centres undefined)
277 to 279 | O=C(NCc1ccc(Cl)cc1)c1cnc2c(F)cc(C#CCO)cc2c1O
292 to 294 | CN1CCC(Cn2c(=O)[nH]c3ncc(-c4ccc(O)cc4)nc32)CC1
125 to 126 | C=CCN1CCCNC1=C[N+](=O)[O-]
158 | CCN(CC)CCNC(=O)c1nc(Cl)c(N)nc1OC
123 to 125 | O=C1CCC(c2c[nH]c3ccccc23)CC1
233 to 234 | O=C1CCC2=C(CCc3c(F)cccc32)N1
126 to 129 | CCCc1nc(C=O)c(C)[nH]1
165 to 169 | CCc1nc2c(cnn2CC)c(NC2CCOCC2)c1CNC(=O)c1cccc(C(=O)NCc2ccc(F)c(-c3cccc(CN4CCN(C(C)C)CC4)c3)c2)c1
80 to 81 | CN(C(=O)c1ccc2nonc2c1)C1CCCCCC1
84 to 86 | CCOC(=O)c1ccc(N(C(=O)OCC)C(=O)c2ccc(C(=O)C(C)(C)C)cc2)cc1
143 to 148 | COc1ccccc1Oc1c(NS(=O)(=O)c2ccc(C(C)(C)C)cc2)ncnc1OCCO
223 to 224 | CC(=O)c1cc(I)c(O)c(Cl)n1
120 to 122 | CCCC(O)c1cc(-c2ccc(C(F)(F)F)n(C)c2=O)c(F)cc1Cl (centres undefined)

melting point [°C] | Structure (SMILES)
125 to 127 | CC(C)c1cccc(C(C)C)c1NC(=O)CN1CCN(CCCSc2nc3ncccc3o2)CC1
214 | CC(C)c1nc(COC(N)=O)n(Cc2ccc[nH]c2=O)c1Sc1cc(Cl)cc(Cl)c1
218 to 220 | CCCOc1ccc(NC(=O)N2CCN(c3ncnc4cc(OC)c(OC)cc34)CC2)cc1
152 to 153 | CCc1c(N)c(C(N)=O)nn1CCN1CCOCC1
68 to 69 | Cc1ccc(C(=O)OC2CCCCC2=O)cc1 (centres undefined)
129 to 130 | COc1cccc(CC(=O)O)c1OCc1cc(OC(C)C)nn1Cc1ccc2ccccc2n1
232 | COc1ccc(N2CCN(c3ccc(-n4cnnc4S)cc3)CC2)cc1
76.1 to 77.1 | CCCCOc1ccc(CC(C)C(=O)Oc2ccc(-c3ccc(C#N)cc3)cc2)cc1 (centres undefined)
182 to 184 | COc1ccc(NC(=O)N2CCN(CCc3ccc(-c4cccc(N)n4)cc3)CC2)cc1
106 to 108 | CN(C)CCn1c(=O)[nH]c2ccccc21
122 to 125 | COC(=O)Cc1cc(C)c(C(=O)c2ccc(Cl)cc2)n1C
185 to 188 | CCCCc1ncc(C=C2C(=O)N(C)c3ccccc32)n1Cc1ccc(C(=O)O)cc1
164 to 165 | Nc1cc(N2C(=O)C3=C(CCCC3)C2=O)c(F)cc1Cl
115 to 122 | CC(C)OC(=O)Cn1c(=O)n(C)c(=O)n(-c2cc(N=c3sc(=S)n4n3CCCC4)c(F)cc2Cl)c1=O
221 to 224 | CCOC(=O)c1cn(CC)c2cc(-c3cc(C)nc(C)c3)c(F)cc2c1=O
150 to 151 | CCN(CC)Cc1nc2cc(OC)c(OC)cc2c(-c2ccc(OC)c(OC)c2)c1C(=O)c1ccccc1
170 to 171 | COCCc1cc(N2CCNCC2)n2nc(SC)c(S(=O)(=O)c3ccccc3)c2n1
210 to 212 | CC(c1oc2ccccc2c(=O)c1-c1ccc(F)cc1)n1cnc2c(N)ncnc21 (centres undefined)
110 to 111 | CC(=O)Nc1ccc(S(=O)(=O)C/C=C2/CN3C(=O)C[C@H]3O2)cc1
156 to 158 | CN1CCN(S(=O)(=O)c2cc(-c3csc(=Nc4ccccc4)n3C)ccc2Cl)CC1

Continued, compound first:

Structure (SMILES) | melting point [°C]
COc1ccc(C(=O)N2CCc3sccc3C2c2ccc(OC(F)(F)F)cc2)cc1 (centres undefined) | 68 to 70
CC(C)(C)OC(=O)N1[C@@H](C(=O)O)C[C@H](S(=O)(=O)c2ccccc2)[C@H]1c1ccccc1F (racemic) | 186
Cc1cc(F)cc2[nH]c(=O)c(=O)[nH]c12 | > 300
Nc1ccc(S(=O)(=O)Nc2ccc(C(O)(C(F)(F)F)C(F)(F)F)cc2)cc1 | 160 to 161
C[C@H]1[C@H](N)CN1C(c1ccccc1)c1ccccc1 (relative stereo) | 68 to 69
Cc1cc(SCc2sc(-c3ccc(C(F)(F)F)cc3)nc2C)ccc1OCC(=O)O | 139 to 141
C=C1[C@H](O)C[C@H](O[Si](C)(C)C(C)(C)C)[C@H]1CO[Si](C)(C)C(C)(C)C | 64 to 66
COc1ccc([C@H]2SC=C(c3ccccc3)N(CCN(C)C)C(=O)[C@H]2OC(C)=O)cc1 | 149 to 151
Cc1c(Br)cc(-c2ccc(=O)[nH]n2)c(O)c1Br | > 280
O=c1ccc2c(OS(=O)(=O)C(F)(F)F)cccc2o1 | 104 to 105
Cc1cccc(C)c1NC(=O)N(Cc1ccccc1)CC(c1ccccc1)c1ccccc1 | 205 to 208
CNc1cc(OC)cc(NCCOC)c1[N+](=O)[O-] | 84
O=S(=O)(Nc1ccc(OCc2ccc3ccccc3n2)cc1)c1ccc(Cl)cc1 | 125
CCS(=O)(=O)Nc1ccc(F)c([N+](=O)[O-])c1 | 133 to 136
CC(=O)Oc1cc(OC(C)=O)cc(C(=O)CBr)c1 | 61 to 62
Oc1cccc(Nc2nnc(Cc3ccncc3)c3ccccc23)c1 | 217 to 219
CCOCCNc1nc(Cl)nc(N[C@@H](C)c2ccccc2)n1 | 103
CC1(N)CN(C(c2ccccc2)c2ccccc2)C1 | 84 to 86
CCCC(CCNC(=O)C(C#N)=Cc1cc(O)c(O)c(OC)c1)NC(=O)C(C#N)=Cc1cc(O)c(O)c(OC)c1 (centres undefined) | 243
O=S(c1ccccc1)C1COc2ccc(OCc3ccc4ccccc4n3)cc2C1O (centres undefined) | 174 to 176
COc1cc(N)c2nccc(C)c2c1Oc1cccc(C(F)(F)F)c1 | 113 to 115
O=C(Nc1cc(-c2cccc(-c3ccccc3)c2)[nH]n1)C1Cc2ccccc2C1 | 108 to 110
CC(C)n1c(-c2ccccc2)cc(-c2ccc(F)cc2)c1C=O | 118 to 122
O=C(O)CN1C(=O)C(=Cc2ccc(OCCc3ccccc3)c(OC(c3ccccc3)C(F)(F)F)c2)SC1=S (centres undefined) | 168
Cc1cccc2c1nc(-c1ccccc1[N+](=O)[O-])n2CC(O)C(C)(C)C (centres undefined) | 204
O=c1[nH]c2cc(Cl)cc(Cl)c2c(=O)n1Cc1ccccc1F | 275 to 278
CC(=Nc1ccc(Cl)nn1)N(C)C | 73
C#CCN1C(=O)CC(c2ccccc2)N=C1c1ccccc1 (centres undefined) | 74.5 to 77

From a melting point compilation (Tetko et al.; mined from patent text by program, amines drawn as free bases though some values may be those of a salt)
